According to US20260209222A1, “CBL-B MODULATORS AND USES THEREOF” (Nimbus Clio, Inc., priority 2022, published 2026):

Legend:
[1] = molecular target: T1, Recombinant human Cbl-b (aa 36-427) (Homo sapiens, UniProt Q13191); assay: Cbl-b Biochemical Assay (TR-FRET); details: 6 nM Cbl-b, 1-2.5 nM Src-Zap70, 0.5 mM ATP; HTRF signal at 520 nm
T1 construct: Recombinant human Cbl-b (aa 36-427) was expressed in E coli; biotin (biotinylated in vitro); made in house; host or cells: E. coli
Method: Cbl-b Biochemical Assay (TR-FRET)
Recombinant human Cbl-b (aa 36-427) was expressed in E coli, purified and biotinylated in vitro. The protein was diluted to 12 nM in freshly prepared assay buffer consisting of 50 mM HEPES, pH 7.0, 100 mM NaCl, 5 mM MgCl2, 0.01% Triton-X 100, 0.01% BSA and 1 mM DTT. Recombinant human Src (aa 254-536)-GSSGSS-Zap-70 (aa 281-297) fusion protein was expressed in E coli and purified. Protein was diluted in assay buffer to 2-5 nM and supplemented with ATP to 1 mM. Fluorescein-BODIPY labeled UBED2D(C85K)-Ub was prepared by conjugating ubiquitin (Ub) labeled at its N-terminus with Fluorescein-BODIPY maleimide (ThermoFisher Catalog no B10250) to E coli expressed and purified UBED2D(C85K) [see Dou et al Nature Structural and Molecular Biology 8: 982-987, 2013]. Recombinant human UBE2D2(C85K) was expressed in E coli, purified and ubiquitinated and Bodipy labelled in vitro. Protein was diluted to 200 nM in assay buffer without MgCl2 (or Cisbio PPI buffer). Streptavidin-Terbium was added to 2 nM and EDTA to 10 mM, to provide a binding assay mix. Compounds were dissolved in DMSO and diluted to prepare a ten-point dilution series. 100 nl of each compound concentration was dispensed in duplicate in a 384 well black assay plate using acoustic dispensing. Wells for maximum signal controls received 100 nl of DMSO only and wells for minimum signal controls received 100 nl of a reference inhibitor compound at a final assay concentration of 100 mM to produce 100% inhibition. 5 μl of diluted Cbl-b enzyme was added to all wells of the assay plate and incubated at RT for 30-60 min. The enzyme assay was initiated by addition of 5 μl of Src-Zap/ATP mix to all wells, and the plate incubated at RT for 60 min. The enzyme reaction was terminated and the binding reaction was initiated by adding 10p of binding assay mix to all wells and incubating the plate at RT for 60 min prior to assay read. Final assay conditions consisted of 6 nM Cbl-b, 1-2.5 nM Src-Zap70, 0.5 mM ATP, 1% (v/v) DMSO (enzyme reaction) and 100 nM UBE2D2(C85K)-Ub-FL-BODIPY, 5 mM EDTA, 1 nM Streptavidin-Tb (binding reaction). The HTRF assay signal was measured at 520 nm on an Envision plate reader, with reference signal at 485 or 620 nm. Data was normalized using maximum and minimum assay controls: % Inhibition=100−(100*((maximum control)−unknown)/(maximum control−minimum control)). A 4-parameter dose-response equation was used to fit the normalized dose-response data and derive an IC50 for test compounds.

[2] = tested on: Recombinant human c-Cbl (aa 47-435); assay: c-Cbl Biochemical Assay (TR-FRET); details: ratio from the Cbl-b and c-Cbl TR-FRET biochemical assays
Method: c-Cbl Biochemical Assay (TR-FRET)
Recombinant human c-Cbl (aa 47-435) was expressed in E coli, purified and biotinylated in vitro. The protein was diluted to 12 nM in freshly prepared assay buffer consisting of 50 mM HEPES, pH 7.0, 100 mM NaCl, 5 mM MgCl2, 0.01% Triton-X 100, 0.01% BSA and 1 mM DTT. Recombinant human Src (aa 254-536)-GSSGSS-Zap-70 (aa 281-297) fusion protein was expressed in E coli and purified. Protein was diluted in assay buffer to 5-20 nM and ATP was added to 1 mM. Recombinant human UBE2D2(C85K) was expressed in E coli, purified and ubiquitinated and Bodipy labelled in vitro. Protein was diluted to 200 nM in assay buffer without MgCl2 (or Cisbio PPI buffer). Streptavidin-Terbium was added to 2 nM and EDTA to 10 mM, to provide a binding assay mix. Compounds were dissolved in DMSO and diluted to prepare a ten-point half log dilution series. 100 nl of each compound concentration was dispensed in duplicate in a 384 well black assay plate using acoustic dispensing. Wells for maximum signal controls received 100 nl of DMSO only and wells for minimum controls received 100 nl of a reference inhibitor compound at a final assay concentration of 100 mM to produce 100% inhibition. 5 μl of diluted c-Cbl enzyme was added to all wells of the assay plate and incubated at RT for 30 min. The enzyme assay was initiated by addition of 5 d of Src-Zap/ATP mix to all wells, and the plate incubated at RT for 60-90 min. The enzyme reaction was terminated and the binding reaction was initiated by adding 10p of binding assay mix to all wells and incubating the plate at RT for 60 min prior to assay read. Final assay conditions consisted of 6 nM c-Cbl. 2.5-10 nM Src-Zap70, 0.5 mM ATP. 1% (v/v) DMSO (enzyme reaction) and 100 nM UBE2D2(C85K)-Ub-FL-BODIPY, 5 mM EDTA, 1 nM Streptavidin-Tb (binding reaction). The HTRF assay signal was measured at 520 nm on an Envision plate reader, with reference signal at 485 or 620 nm. Data was normalized using maximum and minimum assay controls: % Inhibition=100−(100*((maximum control)−unknown)/(maximum control−minimum control)). A 4-parameter dose-response equation was used to fit the normalized dose-response data and derive an IC50 for test compounds.

T1 sequence (Q13191 36-427): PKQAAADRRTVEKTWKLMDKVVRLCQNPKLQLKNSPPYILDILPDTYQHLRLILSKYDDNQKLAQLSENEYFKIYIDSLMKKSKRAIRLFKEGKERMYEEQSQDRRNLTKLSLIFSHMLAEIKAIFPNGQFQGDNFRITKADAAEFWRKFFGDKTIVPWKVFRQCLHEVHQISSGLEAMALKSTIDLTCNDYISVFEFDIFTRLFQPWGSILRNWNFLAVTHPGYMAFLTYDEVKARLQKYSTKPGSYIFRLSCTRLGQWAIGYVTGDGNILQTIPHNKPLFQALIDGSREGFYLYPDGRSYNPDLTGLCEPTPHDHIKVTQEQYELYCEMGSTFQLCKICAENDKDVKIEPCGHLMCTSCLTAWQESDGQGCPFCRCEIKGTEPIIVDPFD

Structure (SMILES) | IC50 [1] [nM] | Cbl-b/c-Cbl Selectivity [2]
C[C@H]1CCCN(Cc2cc(C(F)(F)F)c3oc(-c4cccc([C@H](c5nncn5C)C5CCC5)c4)nc3c2)C1 (single isomer, unassigned) [I-33] | < 200 | 10
C[C@H]1CCCN(Cc2cc(C(F)(F)F)c3oc(-c4cccc([C@H](c5nncn5C)[C@H]5C[C@@H](C(F)(F)F)C5)c4)nc3c2)C1 (single isomer, unassigned) [I-59] | < 200 | 19
CCNc1cc(-c2cc(C#N)ccc2-c2nncn2C)cc(-c2nc3cc(CNCC4(C#N)CCCC4)cc(C(F)(F)F)c3o2)n1 [I-4] | 200 to 5000 | 8
CC(C)NCc1cc(C(F)(F)F)c2oc(-c3cccc([C@]4(c5nncn5C)C[C@@H](C)C4)c3)nc2c1 [I-5, Isopropyl[(2-{3-[(1r,3s)-3-methyl-1-(4-methyl-1,2,4-triazol-3-yl)cyclobutyl]phenyl}-7-(trifluoromethyl)-1,3-benzoxazol-5-yl)methyl]amine] | 200 to 5000 | 12
CO[C@H]1CCCN(Cc2cc(C(F)(F)F)c3oc(-c4cccc([C@]5(c6nncn6C)C[C@@H](C)C5)c4)nc3c2)C1 [I-6, 5-{1[(3S)-3-Methoxypiperidin-1-yl]methyl}-2-{3-[(1r,3s)-3-methyl-1-(4-methyl-1,2,4-triazol-3-yl)cyclobutyl]phenyl}-7-(trifluoromethyl)-1,3-benzoxazole] | 200 to 5000 | 10
CO[C@@H]1CCCN(Cc2cc(C(F)(F)F)c3oc(-c4cccc([C@]5(c6nncn6C)C[C@@H](C)C5)c4)nc3c2)C1 [I-7] | 200 to 5000 | 12
Cn1cnnc1[C@]1(c2cccc(-c3nc4cc(CN5CCC6(CC6)C5)cc(C(F)(F)F)c4o3)c2)C[C@H](C)C1 [I-9, 5-{5-Azaspiro[2.4]heptan-5-ylmethyl}-2-{3-[(1r,3s)-3-methyl-1-(4-methyl-1,2,4-triazol-3-yl)cyclobutyl]phenyl}-7-(trifluoromethyl)-1,3-benzoxazole] | < 200 | 18
CN(Cc1cc(C(F)(F)F)c2oc(-c3cccc([C@]4(c5nncn5C)C[C@@H](C)C4)c3)nc2c1)CC1CCC1 [I-10, 1-Cyclobutyl-N-methyl-N-((2-(3-((1s,3s)-3-methyl-1-(4-methyl-4H-1,2,4-triazol-3-yl)cyclobutyl)phenyl)-7-(trifluoromethyl)benzo[d]oxazol-5-yl)methyl)methanamine] | < 200 | 10
Cn1cnnc1-c1cc(F)ccc1-c1cc(NCCC#N)nc(-c2nc3cc(CN4CCC5(CC5)C4)cc(C(F)(F)F)c3o2)c1 [I-12, 3-{[6-(5-{5-azaspiro[2.4]heptan-5-ylmethyl}-7-(trifluoromethyl)-1,3-benzoxazol-2-yl)-4-[4-fluoro-2-(4-methyl-1,2,4-triazol-3-yl)phenyl]pyridin-2-yl]amino}propanenitrile] | < 200 | 7
Cn1cnnc1-c1cc(F)ccc1-c1cc(NCCC#N)nc(-c2nc3cc(CO)cc(C(F)(F)F)c3o2)c1 [I-14] | 200 to 5000 | 7
Cn1cnnc1-c1ccc(C#N)cc1-c1cc(NCCC#N)nc(-c2nc3cc(CNCC(C)(C)O)cc(C(F)(F)F)c3o2)c1 [I-15, 3-{2-[(2-Cyanoethyl)amino]-6-(5-{[(2-hydroxy-2-methylpropyl)amino]methyl}-7-(trifluoromethyl)-1,3-benzoxazol-2-yl)pyridin-4-yl}-4-(4-methyl-1,2,4-triazol-3-yl)benzonitrile] | < 200 | 7
Cn1cnnc1-c1ccc(C#N)cc1-c1cc(NCCC#N)nc(-c2nc3cc(CN4CCC5(CC5)C4)cc(C(F)(F)F)c3o2)c1 [I-16, 3-[2-(5-{5-azaspiro[2.4]heptan-5-ylmethyl}-7-(trifluoromethyl)-1,3-benzoxazol-2-yl)-6-[(2-cyanoethyl)amino]pyridin-4-yl]-4-(4-methyl-1,2,4-triazol-3-yl)benzonitrile] | 200 to 5000 | 7
Cn1cnnc1-c1ccc(C#N)cc1-c1cc(NCC2(CC#N)CC2)nc(-c2nc3cc(CN[C@@H]4CCC[C@@H]4O)cc(C(F)(F)F)c3o2)c1 [I-27] | < 200 | 1
Cn1cnnc1-c1cc(F)ccc1-c1cc(NC[C@@H](O)CC#N)nc(-c2nc3cc(CN4CCC5(CC5)C4)cc(C(F)(F)F)c3o2)c1 [I-29] | < 200 | 14
C[C@H]1CCCN(Cc2cc(C(F)(F)F)c3oc(-c4cccc([C@@H](c5nncn5C)C5CCC5)c4)nc3c2)C1 [I-34] | > 5000 | 4
C[C@H]1CCCN(Cc2cc(C(F)(F)F)c3oc(-c4cccc(C(c5nncn5C)C5CCC5)c4)nc3c2)C1 (stereo partly shown) [I-48] | < 200 | 9
CN(Cc1cc(C(F)(F)F)c2oc(-c3cc(-c4cc(C#N)ccc4-c4nncn4C)cc(NCC4(CC#N)CC4)n3)nc2c1)[C@@H]1CCC[C@@H]1O [I-49] | < 200 | 3
Cn1cnnc1-c1ccc(C#N)cc1-c1cc(NC[C@@H](O)CC#N)nc(-n2cc3c(C(F)(F)F)cc(CN4CCC5(CCC5)C4)cn3c2=O)c1 [I-50, (S)-3-(2-(6-((6-Azaspiro[3.4]octan-6-yl)methyl)-3-oxo-8-(trifluoromethyl)imidazo[1,5-a]pyridin-2(3H)-yl)-6-((3-cyano-2-hydroxypropyl)amino)pyridin-4-yl)-4-(4-methyl-4H-1,2,4-triazol-3-yl)benzonitrile] | < 200 | 21
C[C@H]1CCCN(Cc2cc(C(F)(F)F)c3oc(-c4cccc(C(c5nncn5C)C5COC5)c4)nc3c2)C1 (stereo partly shown) [I-51] | 200 to 5000 | 7
C[C@H]1CCCN(Cc2cc(C(F)(F)F)c3oc(-c4cccc([C@H](c5nncn5C)C5COC5)c4)nc3c2)C1 [I-52] | 200 to 5000 | 7
C[C@H]1CCCN(Cc2cc(C(F)(F)F)c3oc(-c4cccc([C@@H](c5nncn5C)C5COC5)c4)nc3c2)C1 [I-53] | > 5000 | 1
Cn1cnnc1[C@@H](c1cccc(-c2nc3cc(CN4CCC5(CCC5)C4)cc(C(F)(F)F)c3o2)c1)[C@H]1C[C@H](C(F)(F)F)C1 [I-61] | > 5000 | 
